The text below walks through data of ChEMBL document CHEMBL1201862, “PubChem BioAssay data set” (2004).

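How tested: cells in 96-well plates exposed to compound for 48 hours at five concentrations. The concentration for 50% growth inhibition is given as GI50.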 Active and inactive are the calls of the source. No stated cut-off is given here; in the data, active = GI50 up to about 1.1 µM and inactive = higher.

Test systems include NCI-H226; ACHN; IGROV-1; RPMI-8226; MDA-MB-231; SF-539; COLO 205; U-251; SK-MEL-28; Malme-3M; DU-145; SK-MEL-5; SNB-75; UACC-257; K562; SN12C; SNB-19; SR; MCF7; M19-MEL.
Holding throughout (test): inhibition of tumour cell growth, NCI panel, 48 h

Regarding `CCn1cc(C(=O)O)c(=O)c2cc(F)c(N3CCN(CN4C(=O)/C(=N\c5ncc(Cc6cc(OC)c(OC)c(OC)c6)c(N)n5)c5cc(Cl)ccc54)CC3)cc21`, the GI50 is > 100 µM (inactive) in the experiment on NCI-H226; > 100 µM (inactive) with ACHN; 8.24 µM (inactive) with IGROV-1; 0.0399 µM (active) in the experiment with RPMI-8226; > 100 µM (inactive) with MDA-MB-231; > 100 µM (inactive) with SF-539. Besides, the GI50 was > 100 µM (inactive) with COLO 205; 61.4 µM (inactive) in the experiment with U-251; > 100 µM (inactive) with SK-MEL-28; > 100 µM (inactive) in the experiment with Malme-3M; > 100 µM (inactive) with DU-145; > 100 µM (inactive) in the experiment with SK-MEL-5. Also, the GI50 with SNB-75 is > 100 µM (inactive); in the experiment on UACC-257, > 100 µM (inactive); with K562, 15.9 µM (inactive); in the experiment with SN12C, > 100 µM (inactive); with SNB-19, > 100 µM (inactive); in the experiment with SR it was 41.4 µM (inactive). In addition, in the experiment with MCF7, the GI50 was 82 µM (inactive).
Consider `CSc1cc(N)ccc1/N=N/c1ccc(S(N)(=O)=O)cc1`, for which the GI50 in the experiment with NCI-H226 was 13.2 µM (inactive); with ACHN it was 27.2 µM (inactive); in the experiment on IGROV-1, 23.1 µM (inactive); in the experiment on RPMI-8226, 16.4 µM (inactive); in the experiment with MDA-MB-231 it was 16.1 µM (inactive); in the experiment with SF-539, 31.5 µM (inactive). Besides, the GI50 is 25.8 µM (inactive) in the experiment on COLO 205; 26.9 µM (inactive) in the experiment with U-251; 25.5 µM (inactive) in the experiment with SK-MEL-28; 24.7 µM (inactive) in the experiment with Malme-3M; 34.9 µM (inactive) in the experiment on DU-145; 15.3 µM (inactive) in the experiment on SK-MEL-5. Also, the GI50 is 15.5 µM (inactive) in the experiment on SNB-75; 80 µM (inactive) in the experiment on UACC-257; 38.1 µM (inactive) in the experiment on K562; 27.5 µM (inactive) in the experiment with SN12C; 55.3 µM (inactive) in the experiment on SNB-19; 34.6 µM (inactive) in the experiment with SR. In the experiment with MCF7, the GI50 was 37.3 µM (inactive).
As to `COC(=O)c1ccccc1CC1Cc2cc3c(cc2C1=O)CCC3` (stereo not given), the GI50 was 18.5 µM (inactive) in the experiment on NCI-H226; 27.7 µM (inactive) in the experiment with ACHN; 16 µM (inactive) in the experiment with IGROV-1; 10.5 µM (inactive) in the experiment on RPMI-8226; 8.85 µM (inactive) in the experiment with MDA-MB-231; 16.8 µM (inactive) in the experiment with SF-539. Also, the GI50 with COLO 205 was 8.59 µM (inactive); in the experiment with U-251, 10.4 µM (inactive); in the experiment with SK-MEL-28, 17.8 µM (inactive); in the experiment with Malme-3M, 7.14 µM (inactive); with DU-145 it was 27.7 µM (inactive); in the experiment with SK-MEL-5, 7.83 µM (inactive). Moreover, the GI50 in the experiment with SNB-75 is 11.4 µM (inactive); with UACC-257, 19.3 µM (inactive); in the experiment with K562, 3.69 µM (inactive); in the experiment on SN12C, 11.5 µM (inactive); in the experiment with SNB-19 it was 21.4 µM (inactive); in the experiment with SR it was 4.06 µM (inactive). Besides, the GI50 in the experiment with MCF7 was 14.6 µM (inactive).
Take `CCCCCCCCCOC(=S)NC`: the GI50 in the experiment with ACHN was 19.3 µM (inactive); with IGROV-1 it was 24.2 µM (inactive); in the experiment with RPMI-8226, 20 µM (inactive); with SF-539, 17.6 µM (inactive); in the experiment on COLO 205 it was 22.8 µM (inactive); in the experiment on U-251, 16.9 µM (inactive). The GI50 in the experiment with SK-MEL-28 is 22.3 µM (inactive); in the experiment with Malme-3M it was 20.6 µM (inactive); with SK-MEL-5, 19.1 µM (inactive); in the experiment on SNB-75 it was 26.1 µM (inactive); in the experiment with M19-MEL it was 23.4 µM (inactive); in the experiment with K562, 21.8 µM (inactive). Besides, the GI50 is 18.4 µM (inactive) in the experiment with SN12C and 30.8 µM (inactive) in the experiment with SNB-19.
For `O=[N+]([O-])c1cccc(/C=N\NS(=O)(=O)c2ccc(Cl)cc2)c1O`, the GI50 is 98.6 µM (inactive) in the experiment with ACHN; 49.4 µM (inactive) in the experiment on IGROV-1; 55.5 µM (inactive) in the experiment on RPMI-8226; 54.2 µM (inactive) with SF-539; 69.8 µM (inactive) in the experiment with COLO 205; 55.5 µM (inactive) in the experiment with U-251. Also, the GI50 is 46.9 µM (inactive) in the experiment on SK-MEL-28; > 100 µM (inactive) in the experiment with Malme-3M; 73.1 µM (inactive) with SK-MEL-5; > 100 µM (inactive) with SNB-75; > 100 µM (inactive) in the experiment on UACC-257; > 100 µM (inactive) in the experiment with M19-MEL. Further, the GI50 with K562 was 60.1 µM (inactive); with SN12C it was > 100 µM (inactive); with SNB-19, > 100 µM (inactive); with SR, 18.7 µM (inactive).
Turning to `O=C(Nc1cc(Cl)ccc1Cl)c1cc2cccc(Br)c2oc1=O`, the GI50 with NCI-H226 is > 100 µM (inactive); in the experiment on ACHN, > 100 µM (inactive); in the experiment with IGROV-1, > 100 µM (inactive); in the experiment with RPMI-8226, > 100 µM (inactive); in the experiment with SF-539, 56.4 µM (inactive); in the experiment with COLO 205, > 100 µM (inactive). Further, the GI50 in the experiment with U-251 was 70.5 µM (inactive); with SK-MEL-28, > 100 µM (inactive); in the experiment with Malme-3M, > 100 µM (inactive); in the experiment on SK-MEL-5, > 100 µM (inactive); in the experiment with SNB-75, 34.9 µM (inactive); in the experiment on UACC-257, > 100 µM (inactive). Besides, the GI50 in the experiment on M19-MEL, in the experiment with K562, with SN12C and in the experiment on SNB-19 was > 100 µM (inactive) throughout.
As to `CCCCNC(=S)OCCC(C)CCCC(C)C` (stereo not given), the GI50 was > 100 µM (inactive) in the experiment with ACHN; > 100 µM (inactive) in the experiment with IGROV-1; > 100 µM (inactive) in the experiment with RPMI-8226; > 100 µM (inactive) in the experiment with SF-539; > 100 µM (inactive) with U-251; 87.9 µM (inactive) in the experiment with SK-MEL-28. Besides, the GI50 in the experiment with Malme-3M was > 100 µM (inactive); with SK-MEL-5 it was > 100 µM (inactive); in the experiment on SNB-75, 35.3 µM (inactive); with UACC-257, > 100 µM (inactive); in the experiment with M19-MEL it was > 100 µM (inactive); in the experiment with K562, > 100 µM (inactive). Further, the GI50 in the experiment with SN12C, in the experiment on SNB-19 and in the experiment on SR was > 100 µM (inactive) throughout.
Consider `CCN(CC)CC(=O)NC1c2ccccc2Oc2ccccc21`, for which the GI50 with NCI-H226, with IGROV-1, in the experiment on RPMI-8226, in the experiment on SF-539, in the experiment on COLO 205 and with U-251 was > 100 µM (inactive) throughout. The GI50 with SK-MEL-28, in the experiment with SK-MEL-5, with SNB-75, in the experiment with UACC-257, in the experiment on M19-MEL and in the experiment with K562 was > 100 µM (inactive) each time. Also, the GI50 in the experiment on SN12C, in the experiment on SNB-19 and in the experiment with SR was > 100 µM (inactive) in each case.
As to `O=C(CCC/C(CC(=O)c1ccc(Br)cc1)=N\O)Nc1ccccc1`, the GI50 is > 100 µM (inactive) in the experiment on NCI-H226; 96.6 µM (inactive) in the experiment on ACHN; 57.3 µM (inactive) in the experiment on IGROV-1; 10.7 µM (inactive) in the experiment with RPMI-8226; > 100 µM (inactive) with COLO 205; > 100 µM (inactive) in the experiment on U-251. In addition, the GI50 is > 100 µM (inactive) in the experiment with SK-MEL-28; > 100 µM (inactive) in the experiment with Malme-3M; 43.3 µM (inactive) in the experiment on SK-MEL-5; > 100 µM (inactive) in the experiment on SNB-75; 67.9 µM (inactive) in the experiment with UACC-257; > 100 µM (inactive) with M19-MEL. Also, the GI50 in the experiment with SN12C and in the experiment on SNB-19 was > 100 µM (inactive) throughout.
Turning to `C/C(CC(=O)Nc1cccc([N+](=O)[O-])c1)=N\NC(=O)C[n+]1ccccc1`, the GI50 in the experiment on NCI-H226, in the experiment on IGROV-1, in the experiment with RPMI-8226, in the experiment on SF-539, in the experiment on COLO 205 and in the experiment on U-251 was > 100 µM (inactive) each time. In addition, the GI50 in the experiment on SK-MEL-28, with Malme-3M, in the experiment with SK-MEL-5, with SNB-75, in the experiment with UACC-257 and in the experiment with M19-MEL was > 100 µM (inactive) in each case.
On to `CC(=O)Nc1ccc(/C=C/C(=O)c2sc(-c3cccnc3)nc2C)cc1`, for which the GI50 in the experiment with NCI-H226, in the experiment with ACHN, with IGROV-1, with RPMI-8226, in the experiment with SF-539 and in the experiment with COLO 205 was > 100 µM (inactive) in each case. In addition, the GI50 with U-251, in the experiment on SK-MEL-28, in the experiment on Malme-3M, in the experiment on SK-MEL-5, with SNB-75 and in the experiment on UACC-257 was > 100 µM (inactive) throughout. For the same compound, the GI50 in the experiment on M19-MEL, in the experiment on K562 and in the experiment with SN12C was > 100 µM (inactive) each time.
As for `CSc1cccc(-n2c3nc(=O)n(C)c(=O)c-3nc3ccccc32)c1`, the GI50 was 11.8 µM (inactive) in the experiment with NCI-H226; 0.735 µM (active) with ACHN; 13.6 µM (inactive) in the experiment with IGROV-1; 5.77 µM (inactive) with RPMI-8226; 2.16 µM (inactive) in the experiment with SF-539; 2.94 µM (inactive) in the experiment on COLO 205. Moreover, the GI50 was 7.98 µM (inactive) in the experiment with U-251; 17.4 µM (inactive) in the experiment on SK-MEL-28; 3.04 µM (inactive) in the experiment on Malme-3M; 1.25 µM (inactive) in the experiment on SK-MEL-5; 14.5 µM (inactive) with SNB-75; 4.94 µM (inactive) in the experiment with UACC-257. Moreover, the GI50 is 2.07 µM (inactive) with M19-MEL, 12.5 µM (inactive) with K562, 5.38 µM (inactive) with SN12C and 12.9 µM (inactive) with SNB-19.
